Measured values as given in patent US20250101039A1, “RIFAMYCIN DERIVATIVES FOR THE TREATMENT OF DISEASES” (priority 2022, published 2025).
≈ marks a conversion by molar mass, not a printed value. Like-named read-outs stand apart in the source and are kept apart here.

What was measured:
S. aureus = assay: MIC by broth microdilution, S. aureus; type: cell-based, Staphylococcus aureus; details: cation adjusted Mueller Hinton broth, 35° C. 20 hours
A. baumannii = assay: MIC by broth microdilution, A. baumannii (WT); type: cell-based, Acinetobacter baumannii
[1] = RPMI medium supplemented with 10% FCS, 35° C. 20 hours

MIC A. baumannii (A. baumannii; [1])	Compound	MIC S. aureus (S. aureus)	MIC A. baumannii (A. baumannii)
0.25 µg/mL (≈ 0.291 µM)	CO[C@H]1/C=C/O[C@@]2(C)Oc3c(C)c(O)c4c(c3C2=O)C2=NC3(CC5CCC(C3)N5C(C)C)NC2=C(NC(=O)/C(C)=C\C=C\[C@H](C)[C@H](O)[C@@H](C)[C@@H](O)[C@@H](C)[C@H](OC(C)=O)[C@@H]1C)C4=O (single isomer, unassigned) [Compound 14A]	0.016 µg/mL (≈ 0.0186 µM)	–
2 µg/mL	COC1C=COC2(C)Oc3c(C)c(O)c4c(c3C2=O)C2=NC3(NC2=C(NC(=O)C(C)=CC=CC(C)C(O)C(C)C(O)C(C)C(OC(C)=O)C1C)C4=O)C1CCC3CN(C(C)(C)C)C1 (mixture of isomers) [2 (A + B)]	0.008 µg/mL	–
–	CO[C@H]1/C=C/O[C@@]2(C)Oc3c(C)c(O)c4c(c3C2=O)C2=NC3(NC2=C(NC(=O)/C(C)=C\C=C\[C@H](C)[C@H](O)[C@@H](C)[C@@H](O)[C@@H](C)[C@H](OC(C)=O)[C@@H]1C)C4=O)C1CC2CC3CN(C2)C1 (stereo partly drawn) [Compound 3A]	0.008 µg/mL (≈ 0.00949 µM)	0.25 µg/mL (≈ 0.297 µM)
0.016 µg/mL (≈ 0.0186 µM)	CO[C@H]1/C=C/O[C@@]2(C)Oc3c(C)c(O)c4c(c3C2=O)C2=NC3(CC5CCC(C3)N5C(C)C)NC2=C(NC(=O)/C(C)=C\C=C\[C@H](C)[C@H](O)[C@@H](C)[C@@H](O)[C@@H](C)[C@H](OC(C)=O)[C@@H]1C)C4=O (single isomer, unassigned) [Compound 14B]	0.008 µg/mL (≈ 0.00931 µM)	–
125 µg/mL (≈ 155 µM)	CO[C@H]1/C=C/O[C@@]2(C)Oc3c(C)c(O)c4c(c3C2=O)C2=NC3(CCCNCC3)NC2=C(NC(=O)/C(C)=C\C=C\[C@H](C)[C@H](O)[C@@H](C)[C@@H](O)[C@@H](C)[C@H](OC(C)=O)[C@@H]1C)C4=O (single isomer, unassigned) [Compound 6B]	16 µg/mL (≈ 19.9 µM)	–
0.03 µg/mL (≈ 0.0327 µM)	CCCN1CC2CN(CCC)CC(C1)C21N=C2C(=C3NC(=O)/C(C)=C\C=C\[C@H](C)[C@H](O)[C@@H](C)[C@@H](O)[C@@H](C)[C@H](OC(C)=O)[C@H](C)[C@@H](OC)/C=C/O[C@@]4(C)Oc5c(C)c(O)c(c2c5C4=O)C3=O)N1 (stereo partly drawn) [Compound 4]	0.016 µg/mL (≈ 0.0175 µM)	–
0.125 µg/mL (≈ 0.155 µM)	CO[C@H]1/C=C/O[C@@]2(C)Oc3c(C)c(O)c4c(c3C2=O)C2=NC3(CCCNCC3)NC2=C(NC(=O)/C(C)=C\C=C\[C@H](C)[C@H](O)[C@@H](C)[C@@H](O)[C@@H](C)[C@H](OC(C)=O)[C@@H]1C)C4=O (single isomer, unassigned) [Compound 6A]	0.016 µg/mL (≈ 0.0199 µM)	–

Compound	MIC A. baumannii (A. baumannii; [1])	MIC S. aureus (S. aureus)	MIC A. baumannii (A. baumannii)
CO[C@H]1/C=C/O[C@@]2(C)Oc3c(C)c(O)c4c(c3C2=O)C2=NC3(CCCN(C)CC3)NC2=C(NC(=O)/C(C)=C\C=C\[C@H](C)[C@H](O)[C@@H](C)[C@@H](O)[C@@H](C)[C@H](OC(C)=O)[C@@H]1C)C4=O (single isomer, unassigned) [Compound 7B]	0.125 µg/mL (≈ 0.153 µM)	0.008 µg/mL (≈ 0.00977 µM)	–
COC1C=COC2(C)Oc3c(C)c(O)c4c(c3C2=O)C2=NC3(CC5CCC(C3)N5C3CCCC3)NC2=C(NC(=O)C(C)=CC=CC(C)C(O)C(C)C(O)C(C)C(OC(C)=O)C1C)C4=O (mixture of isomers) [15 (A + B)]	0.25 µg/mL	0.03 µg/mL	–
COC1C=COC2(C)Oc3c(C)c(O)c4c(c3C2=O)C2=NC3(NC2=C(NC(=O)C(C)=CC=CC(C)C(O)C(C)C(O)C(C)C(OC(C)=O)C1C)C4=O)C1CCC3CN(C)C1 (mixture of isomers) [1 (A + B)]	0.25 µg/mL	0.016 µg/mL	–
CO[C@H]1/C=C/O[C@@]2(C)Oc3c(C)c(O)c4c(c3C2=O)C2=NC3(NC2=C(NC(=O)/C(C)=C\C=C\[C@H](C)[C@H](O)[C@@H](C)[C@@H](O)[C@@H](C)[C@H](OC(C)=O)[C@@H]1C)C4=O)C1CNCC3CNC1 (stereo partly drawn) [Compound 17]	0.5 µg/mL (≈ 0.601 µM)	0.008 µg/mL (≈ 0.00962 µM)	–
COC1C=COC2(C)Oc3c(C)c(O)c4c(c3C2=O)C2=NC3(NC2=C(NC(=O)C(C)=CC=CC(C)C(O)C(C)C(O)C(C)C(OC(C)=O)C1C)C4=O)C1CC3CN(C)C1 (mixture of isomers) [5 (A + B)]	8 µg/mL	0.125 µg/mL	–
